“Also recorded” adds a separate entry of the source.
Key:
[1] = Complete blood count and serum iron parameters in wild-type mice with chelator treatment; format: in vivo; conditions: iron chelators for 3 weeks, n = 5, mean±SEM
Method: (§1) To test the use of these iron chelators in the setting of I/R, mice were pretreated for a week with these chelators and then subjected to I/R or sham operation. Chelation was continued for two weeks after the operation. […] To rule out any changes of serum iron hematopoiesis that can account for the cardiac functional difference, we performed complete blood counts and measured serum iron parameters in wild-type mice treated with iron chelators for 3 weeks.
(§2) Mice were treated with 80 mg/kg BPD (Sigma) in normal saline solution daily or 50 mg/kg DFO (Sigma) in normal saline every other day via intraperitoneal injection. The dose of BPD was chosen based on its ability to modulate cardiac mitochondrial iron, and the dose of DFO was chosen according to previously published studies (Ichikawa et al., 2014). BPD was prepared as a 400 mg/ml stock solution in ethanol and diluted 1:100 in normal saline to working concentration. DFO was prepared as a 250 mg/ml stock in water and diluted 1:100 in normal saline to working concentration.

[2] = cited from earlier work
[3] = system: H9c2 cardiomyoblasts; test: Mitochondrial labile (chelatable) iron by RPA fluorescence in H9c2 cells; format: cell-based, rat
Method: (§3) H9c2 cardiomyoblasts were cultured in DMEM (ATCC) supplemented with 10% FBS (Thermo) and Penicillin/Streptomycin (Cellgro). HEK293T cells were cultured in MEM (Cellgro) supplemented with 10% FBS, sodium pyruvate (Cellgro) and Penicillin/Streptomycin. Unless otherwise specified, cells were treated with 200 μM of DFO or 100 μM of BPD for two hours when indicated prior to addition of 600 μM of H2O2 when indicated for 6 hours. RNA isolation and qRT-PCR RNA was isolated using RNA-STAT60 (Tel-Test) according to the manufacturer's instructions, and subjected to DNAse I (Ambion) digestion to remove residual DNA. Purified RNA was then reverse transcribed with Random Hexamer and Oligo dT(16) (Applied Biosystems) and amplified on a 7500 Fast Real-Time PCR system using Fast SYBR Green PCR Master Mix (Applied Biosystems). mRNA levels were calculated based on the difference of threshold Ct values in target gene and average Ct values of 18s, Actb, B2m, and Hprt in the same sample.
Tissue iron was measured colorimetrically by the formation of a complex with bathophenanthroline disulfonate or ferene-S as described previously (Ichikawa et al., 2012; Khechaduri et al., 2013). […] Quantitative measurement of labile iron was done according to previously described methods (Cabantchik et al., 1996; Petrat et al., 2002b). […]

[4] = system: H9c2 cells; test: Cytosolic and nuclear iron in H9c2 cells preloaded with radioactive 55Fe; format: cell-based, rat; conditions: H9c2 cells preloaded with 55Fe
Method: as §3
For nuclear and cytosolic iron, cells were loaded with 280 nM of ^55Fe-NTA. Excess ^55Fe-NTA was washed off with cold PBS containing 200 μM DFO prior to chelator treatment. The nuclear and cytosolic fractions were isolated using NE-PER Nuclear and Cytoplasmic Extraction Reagents (Pierce) and the radioactivity was quantified with liquid scintillation.

[5] = system: H9c2 cells; test: H2O2-induced cell death in H9c2 cells; format: cell-based, rat; conditions: chelator pretreatment, then H2O2
Method: as §3
For in vitro studies, cells were resuspended in 1× Annexin V buffer (BD) and then stained with Alexa Fluor 350 conjugated Annexin V (Life Technology) and propidium iodide (Sigma) according to the manufacturer's instructions and analyzed on a LSRII flow cytometer (BD).

[6] = system: wild-type mice; test: Cardiac mitochondrial, cytosolic and nuclear non-heme iron in wild-type mice treated with iron chelator; format: in vivo; conditions: wild-type mice at baseline, one-week regimen, BPD 80 mg/kg per day, DFO 50 mg/kg every other day
Method: Mice were treated with 80 mg/kg BPD (Sigma) in normal saline solution daily or 50 mg/kg DFO (Sigma) in normal saline every other day via intraperitoneal injection. The dose of BPD was chosen based on its ability to modulate cardiac mitochondrial iron, and the dose of DFO was chosen according to previously published studies (Ichikawa et al., 2014). BPD was prepared as a 400 mg/ml stock solution in ethanol and diluted 1:100 in normal saline to working concentration. DFO was prepared as a 250 mg/ml stock in water and diluted 1:100 in normal saline to working concentration. […]
Tissue iron was measured colorimetrically by the formation of a complex with bathophenanthroline disulfonate or ferene-S as described previously (Ichikawa et al., 2012; Khechaduri et al., 2013). […] Quantitative measurement of labile iron was done according to previously described methods (Cabantchik et al., 1996; Petrat et al., 2002b). […] Fluorescence intensity was measured using Gemini XS plate reader (Molecular Device) with following excitation emission setting: ex/em 490 nm/520 nm for mitoTracker Green and calcein, 564 nm/601 nm for RPA, and 350 nm/461 nm for Hoechst 33342. After initial measurement, 2 mM of PIH (Abcam) was added to each well and fluorescence signal was measured again. […]

[7] = system: wild-type mice subjected to I/R; test: Ischemia/reperfusion (I/R) injury in chelator-pretreated wild-type mice; format: in vivo
Method: as §1, §2
The procedure was performed as described previously (Wu et al., 2011).
(§4) Parasternal short- and long-axis views of the heart were obtained using a Vevo 770 high-resolution imaging system with a 30 MHz scan head. 2D and M-mode images were obtained and analyzed. Ejection fraction was calculated from M mode image using Teichholtz equation, and fractional shortening was directly calculated from end-systolic and end-diastolic chamber size from M-mode images.
At the time of tissue harvest, heart was excised and rinsed in phosphate buffered saline to remove excess blood on tissue and in ventricles. Hearts were then submerged into OTC compound and frozen in liquid nitrogen. For hearts with I/R injury, sections were collected 500 μm below suture line to capture the injured region. Sections were stained with hematoxylin and eosin for evaluation of general cardiac morphology and tissue organization. Masson Trichrome staining were used to visualize cardiac fibrosis. Fibrosis was quantified from low power microscope images by dividing the arc length of fibrotic scar to the circumference of left ventricle.
H9c2 cardiomyoblasts were cultured in DMEM (ATCC) supplemented with 10% FBS (Thermo) and Penicillin/Streptomycin (Cellgro). HEK293T cells were cultured in MEM (Cellgro) supplemented with 10% FBS, sodium pyruvate (Cellgro) and Penicillin/Streptomycin. […] Purified RNA was then reverse transcribed with Random Hexamer and Oligo dT(16) (Applied Biosystems) and amplified on a 7500 Fast Real-Time PCR system using Fast SYBR Green PCR Master Mix (Applied Biosystems). mRNA levels were calculated based on the difference of threshold Ct values in target gene and average Ct values of 18s, Actb, B2m, and Hprt in the same sample.

[8] = system: cardiac-specific ABCB8 knockout mice; test: Spontaneous cardiomyopathy in cardiac-specific ABCB8 knockout mice; format: in vivo
Excerpt: We next took a loss-of-function approach, and studied whether a decrease in mitochondrial iron in cardiac-specific ABCB8 knockout mice, a model of spontaneous cardiomyopathy with mitochondrial iron overload (Ichikawa et al., 2012), protects against cardiac tissue damage. […] Mitochondrial iron in ABCB8 flox/flox (LoxP sequence flanking exon one of both alleles of ABCB8) mice with or without the αMHC-MER-Cre-MER transgene was modulated with BPD or vehicle control for one week before the induction of ABCB8 deletion with tamoxifen. BPD treatment continued until four weeks after the completion of tamoxifen treatment, at which point mitochondrial iron and cardiac function were measured. The effectiveness of Cre-mediated gene excision was confirmed at the protein level (FIG. 15). […] These findings indicate that prevention of mitochondrial iron accumulation through a pharmacological approach delays the development of cardiomyopathy in an animal model of mitochondrial iron accumulation.
Cardiomyocyte-specific ABCB8 transgenic mice were generated as described previously (Ichikawa et al., 2014) and backcrossed for at least 8 generations. Mice with both alleles of ABCB8 floxed (ABCB8f/f) were crossed to α-MHC MER-Cre-MER mice, and the first generation is back-crossed with ABCB8f/f mice to generate ABCB8f/f mice with or without α-MHC MER-Cre-MER transgene. Tamoxifen-induced Cre translocation and deletion of ABCB8 in the heart was achieved using a previously described protocol (Ichikawa et al., 2012). All animal studies were approved by the Institutional Animal Care and Use Committee at Northwestern University and were performed in accordance with guidelines from the National Institutes of Health.
as §2, §4
Tissue iron was measured colorimetrically by the formation of a complex with bathophenanthroline disulfonate or ferene-S as described previously (Ichikawa et al., 2012; Khechaduri et al., 2013). For qualitative measurement of mitochondrial labile iron, cells were stained with Rhodamine B-[1,10-phenanthrolin-5-yl)-aminocarbonyl]benzyl ester (RPA) (Squarix) and mitoTracker Green (Invitrogen). Images were obtained on a Zeiss AxioObserver.Z1 microscope. Quantitative measurement of labile iron was done according to previously described methods (Cabantchik et al., 1996; Petrat et al., 2002b). Briefly, cells were stained with RPA and mitoTracker Green for mitochondrial labile iron measurement and calcein (Invitrogen) and Hoechst 33342 (Invitrogen) for cytosolic labile iron measurement. Fluorescence intensity was measured using Gemini XS plate reader (Molecular Device) with following excitation emission setting: ex/em 490 nm/520 nm for mitoTracker Green and calcein, 564 nm/601 nm for RPA, and 350 nm/461 nm for Hoechst 33342. After initial measurement, 2 mM of PIH (Abcam) was added to each well and fluorescence signal was measured again. […]

[9] = system: H9c2 cells; test: Mitochondrial ROS (mitoSox) in H9c2 cells after hydrogen peroxide treatment; format: cell-based, rat; conditions: chelator pretreatment
Method: as §3
Mitochondrial ROS levels in intact cells were quantified using MitoSox Red (Life Technologies). Briefly, cells were loaded with MitoSox to stain for mitochondrial ROS and Hoechst 33342 for nuclei counter stain. Images were obtained on a Zeiss AxioObserver.Z1 microscope and analyzed with ImageJ software (NIH). MitoSox signal in the nuclei was subtracted to exclude localization of the dye to the nuclei.

[10] = system: H9c2 cells; test: Mitochondrial membrane potential (TMRE) in H9c2 cells; format: cell-based, rat; conditions: H2O2
Method: as §3
Cells were stained with 5 nM of TMRE (Life Technology) and counter stained with Hoechst 33342. Images were obtained on a Zeiss AxioObserver.Z1 microscope and analyzed with ImageJ software (NIH).

[11] = system: mitochondrial aconitase, complex I, II and IV; test: Mitochondrial enzyme and complex activities in H9c2 cells; format: cell-based, rat; conditions: chelator pre-treatment, then H2O2
Method: as §3
Mitochondria were isolated from cells as described above. Mitochondrial complex I, II and IV activity was measured as described previously (Spinazzi et al., 2012). Aconitase activity was measured using Aconitase Activity Microplate Assay Kit (Abcam). Citrate synthase activity was measured from the same sample using Citrate Synthase Activity Kit (BioVision) and was used to normalize the mitochondrial complex activity.

Row | Structure (SMILES) | Hematocrit [1] | Hemoglobin [1] | Iron Saturation [1] | MCH [1] | MCHC [1] | MCV [1] | Platelet [1] | RBC [1] | RDW [1] | Serum Iron [1] | Total Iron Binding Capacity [1] | Unsaturated Iron Binding Capacity [1] | WBC [1] | log P [2] | other results
1 | CC(=O)N(O)CCCCCNC(=O)CCC(=O)N(O)CCCCCNC(=O)CCC(=O)N(O)CCCCCN [DFO, deferoxamine] | 47.02 ± 2.25% | 12.96 ± 0.53 g/dL | 18.66 ± 1.68 % | 13.28 ± 0.12 pg | 27.62 ± 0.32 g/dL | 48.1 ± 0.31 fL | 711.6 ± 139.86 10^3/μL | 9.77 ± 0.43 10^6/μL | 17 ± 0.32% | 53.37 ± 6.63 µg/dL | 281.21 ± 12.76 µg/dL | 227.85 ± 7.71 µg/dL | 6.62 ± 0.85 10^3/μL | −0.614 | –
2 | c1ccc(-c2ccccn2)nc1 [BPD, 2,2′-bipyridyl] | 47.53 ± 1.84% | 13.12 ± 0.30 g/dL | 15.25 ± 0.81 % | 12.38 ± 0.53 pg | 26.34 ± 1.21 g/dL | 47.02 ± 0.36 fL | 1007 ± 236.72 10^3/μL | 10.7 ± 0.62 10^6/μL | 17 ± 0.41% | 44.40 ± 2.24 µg/dL | 291.42 ± 4.63 µg/dL | 247.02 ± 4.93 µg/dL | 5.70 ± 0.40 10^3/μL | 1.5 | increase in mitochondrial labile iron after H2O2 treatment ([3]; chelator pretreatment, then 600 μM H2O2 for 6 hours): attenuated; chelatable / labile mitochondrial iron ([3]; two-hour pretreatment, 200 μM DFO or 100 μM BPD, no H2O2): decreased mitochondrial labile iron; also recorded: significantly reduced chelatable mitochondrial iron; also recorded: significantly lowered chelatable mitochondrial iron; cytosolic iron [4]: significant decreases; nuclear iron [4]: significant decreases; H2O2-induced cell death [5]: significantly reversed H2O2-induced cell death; also recorded: protected cells against H2O2 induced cell death; cardiac mitochondrial iron [6]: decreased cardiac mitochondrial iron; also recorded: decreased baseline mitochondrial iron; also recorded: lower mitochondrial iron; cardiac remodeling (tissue fibrosis) after I/R ([7]; mice pretreated for a week, H&E and Masson Trichrome staining): less cardiac remodeling compared to either vehicle- or DFO-treated mice; cardiac function after I/R / protection against I/R injury ([7]; mice pretreated for a week, chelation continued for two weeks after operation): significantly preserved cardiac function after I/R; also recorded: protected mice against I/R injury; expression of Nppa, Nppb and Myh7 after I/R ([7]; mice pretreated for a week, subjected to I/R): attenuated the expression of Nppa, Nppb and Myh7; ROS production after I/R ([7]; mice pretreated with chelator): reduced ROS production; cardiac function in ABCB8 knockout mice ([8]; BPD from 1 week before deletion until 6 weeks after deletion, read at 6 weeks after deletion): preserved cardiac function; mitochondrial iron accumulation in ABCB8 KO mice ([8]; Cre+ (KO) mice, BPD from one week before tamoxifen until four weeks after tamoxifen): prevented the development of iron accumulation; mitochondrial iron in Cre- (WT) mice ([8]; Cre- (WT) mice, same BPD regimen): resulted in a decrease in mitochondrial iron; cardiotoxicity of the treatment itself ([8]; WT mice, same BPD regimen): not cardiotoxic; lipid peroxidation products in ABCB8 KO mice ([8]; chelator-treated ABCB8 KO mice): attenuated the increase; cardiac function (ejection fraction, fractional shortening) in ABCB8 KO mice ([8]; four weeks after completion of tamoxifen treatment): preserved cardiac function; expression of Nppa, Nppb and Myh7 in ABCB8 KO mice ([8]; four weeks after tamoxifen): attenuated expression of Nppa, Nppb and Myh7; increase in mitochondrial ROS after hydrogen peroxide treatment (mitoSox) [9]: significantly attenuated; mitochondrial membrane potential after oxidative stress [10]: prevented the significant decrease of mitochondrial membrane potential after oxidative stress; activities of mitochondrial aconitase, complex I, II and IV after H2O2 treatment [11]: protected the activities of mitochondrial aconitase, complex I, II and IV after H2O2 treatment
